Experimental data: patent US7868028B2 (priority 2002, dated 2011)
Several values for one entry are separate records, joined by “and”; a condition that tells them apart may be missing. Equal entries are not always repeated.

What was measured:
[1] = biological target: voltage-gated sodium channel; settings: cited from earlier work
[2] = tested on: voltage-gated sodium channel (site 1, [3H]Saxitoxin binding); set-up: species or system rat; as to % inhibition: test concentration or dose not given here
Male Sprague-Dawley rats = settings: rat, in vivo; also: test concentration or dose not given here

SMILES: NC1=N[C@H](O)[C@H]2[C@H]3O[C@]4(O)O[C@@H]([C@@H](O)[C@@]2(N1)[C@@H]4O)[C@]3(O)CO [TTX, tetrodotoxin]
- Kd [1]: 0.003 to 0.005 µM

SMILES: Cc1ccc(Cn2c(=N)n(CC(O)c3ccc(Cl)c(Cl)c3)c3ccccc32)cc1.Cl (stereo not shown) [Compound 11]
- % inhibition [2]: 48%
- IC50 [2]: 155 µM
- Average % MPE 5 minutes (Male Sprague-Dawley rats): 34 % MPE
- Average % MPE Day 4 (Male Sprague-Dawley rats): 18 % MPE

SMILES: Br.COc1ccc(Cn2c(=N)n(CC(O)COc3ccccc3)c3ccccc32)cc1 (racemic) [Compound 78]
- % inhibition [2]: 17%
- IC50 [2]: 67 µM
- Average % MPE 5 minutes (Male Sprague-Dawley rats): 11 % MPE
- Average % MPE Day 4 (Male Sprague-Dawley rats): −4 % MPE

SMILES: Cl.N=c1n(Cc2ccccc2)c2ccccc2n1CC(O)c1ccccc1 (racemic) [Compound 5]
- % inhibition [2]: 38%
- IC50 [2]: 41 µM
- Average % MPE 5 minutes (Male Sprague-Dawley rats): 100 % MPE
- Average % MPE Day 4 (Male Sprague-Dawley rats): 7 % MPE

SMILES: Cl.N=c1n(Cc2ccccc2)c2ccccc2n1CC(O)c1ccc(Cl)cc1 (stereo not shown) [Compound 7]
- % inhibition [2]: 51%
- IC50 [2]: 60 µM
- Average % MPE 5 minutes (Male Sprague-Dawley rats): 100 % MPE
- Average % MPE Day 4 (Male Sprague-Dawley rats): 32 % MPE

SMILES: Br.N=c1n(Cc2ccc(F)cc2)c2ccccc2n1CC(O)COc1ccccc1 (racemic) [Compound 70]
- % inhibition [2]: 26%
- IC50 [2]: 97 µM
- Average % MPE 5 minutes (Male Sprague-Dawley rats): 83 % MPE
- Average % MPE Day 4 (Male Sprague-Dawley rats): 4 % MPE

SMILES: Cc1ccc(Cn2c(=N)n(CC(O)COc3ccccc3)c3ccccc32)cc1.Cl (racemic) [Compound 4]
- % inhibition [2]: 47%
- IC50 [2]: 21 µM
- Average % MPE 5 minutes (Male Sprague-Dawley rats): 100 % MPE
- Average % MPE Day 4 (Male Sprague-Dawley rats): −2 % MPE

SMILES: CCCCn1c(=N)n(CC(O)COc2ccc(Cl)cc2)c2ccccc21.Cl (racemic) [Compound 10]
- % inhibition [2]: 42%
- IC50 [2]: 96 µM
- Average % MPE 5 minutes (Male Sprague-Dawley rats): 26 % MPE
- Average % MPE Day 4 (Male Sprague-Dawley rats): 19 % MPE

SMILES: Cl.N=c1n(CCN2CCCCC2)c2ccccc2n1CC(O)COc1ccccc1 (racemic) [Compound 22]
- % inhibition [2]: 14%
- IC50 [2]: 210 µM
- Average % MPE 5 minutes (Male Sprague-Dawley rats): 100 % MPE

SMILES: Cl.N=c1n(Cc2ccccc2)c2ccccc2n1CC(O)COc1ccc(Cl)cc1 (stereo not shown) [Compound 1]
- % inhibition [2]: 59%
- IC50 [2]: 15 µM
- Average % MPE 5 minutes (Male Sprague-Dawley rats): 100 % MPE
- Average % MPE Day 4 (Male Sprague-Dawley rats): 3 % MPE

SMILES: CCn1c(=N)n(CC(O)c2ccc(Cl)c(Cl)c2)c2ccccc21.Cl (stereo not shown) [Compound 9]
- % inhibition [2]: 46%
- IC50 [2]: 89 µM
- Average % MPE 5 minutes (Male Sprague-Dawley rats): 100 % MPE
- Average % MPE Day 4 (Male Sprague-Dawley rats): 34 % MPE

SMILES: Cl.N=c1n(Cc2ccccc2)c2ccccc2n1CC(O)c1cccs1 (racemic) [Compound 6]
- % inhibition [2]: 52%
- IC50 [2]: 43 µM
- Average % MPE 5 minutes (Male Sprague-Dawley rats): 93 % MPE and 80 % MPE and 100 % MPE
